{"source": "patent US11053204B2", "about": "“Pyrimidinyloxy benzene derivatives as herbicides” (FMC Corporation, priority 2015, dated 2021)", "type_in_all_cases": "in vivo", "key": {"[1]": {"tested_on": "Italian ryegrass (Lolium multiflorum)", "assay": "Test A preemergence, visual injury rating", "procedure,_shortened": "(§1)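 Pre- and postemergence greenhouse screen. Soil: loam + sand. Spray carrier: solvent mixture, non-phytotoxic, with surfactant. Post timing at 1–2 leaves, height 2–10 cm. Readout: visual injury on a 0–100 scale roughly 10 days after application, untreated plants as reference.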"}, "[2]": {"tested_on": "ragweed (common ragweed, Ambrosia elatior)", "assay": "Test A preemergence, visual injury rating", "procedure,_shortened": "as §1"}, "[3]": {"tested_on": "pigweed (Amaranthus retroflexus)", "assay": "Test A preemergence, visual injury rating", "procedure,_shortened": "as §1"}, "[4]": {"tested_on": "giant foxtail (Setaria faberii)", "assay": "Test A preemergence, visual injury rating", "procedure,_shortened": "as §1"}, "[5]": {"tested_on": "barnyardgrass (Echinochloa crus-galli)", "assay": "Test A preemergence, visual injury rating", "procedure,_shortened": "as §1"}, "[6]": {"tested_on": "kochia (Kochia scoparia)", "assay": "Test A preemergence, visual injury rating", "procedure,_shortened": "as §1"}, "[7]": {"tested_on": "waterhemp (common waterhemp, Amaranthus rudis)", "assay": "Test C postemergence, plant response rating", "procedure,_shortened": "(§2)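 After sowing in loam–sand blend or silt loam, pots were sprayed preemergence; separately grown 1- to 4-leaf plants were sprayed postemergence. Following 13 to 15 d under greenhouse conditions, injury was rated visually on a 0 to 100 scale.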"}, "[8]": {"tested_on": "crabgrass, large (large crabgrass, Digitaria sanguinalis)", "assay": "Test C postemergence, plant response rating", "details": "for Crabgrass, Large plant response rating: scale 0 to 100 (0 no effect, 100 complete control)", "procedure,_shortened": "as §2"}, "[9]": {"tested_on": "corn (Zea mays)", "assay": "Test C postemergence, plant response rating", "details": "for Corn plant response rating: scale 0 to 100 (0 no effect, 100 complete control)", "procedure,_shortened": "as §2"}, "[10]": {"tested_on": "ragweed (common ragweed, Ambrosia elatior)", "assay": "Test C postemergence, plant response rating", "details": "for Ragweed plant response rating: scale 0 to 100 (0 no effect, 100 complete control)", "procedure,_shortened": "as §2"}, "[11]": {"tested_on": "lambsquarters (Chenopodium album)", "assay": "Test C postemergence, plant response rating", "details": "for Lambsquarters plant response rating: scale 0 to 100 (0 no effect, 100 complete control)", "procedure,_shortened": "as §2"}, "[12]": {"tested_on": "ryegrass, Italian (Italian ryegrass, Lolium multiflorum)", "assay": "Test C postemergence, plant response rating", "details": "for Ryegrass, Italian plant response rating: scale 0 to 100 (0 no effect, 100 complete control)", "procedure,_shortened": "as §2"}, "[13]": {"tested_on": "soybean (Glycine max)", "assay": "Test C postemergence, plant response rating", "details": "for Soybean plant response rating: scale 0 to 100 (0 no effect, 100 complete control)", "procedure,_shortened": "as §2"}, "[14]": {"tested_on": "kochia (Kochia scoparia)", "assay": "Test C postemergence, plant response rating", "details": "for Kochia plant response rating: scale 0 to 100 (0 no effect, 100 complete control)", "procedure,_shortened": "as §2"}, "[15]": {"tested_on": "oat, wild (wild oat Avena fatua)", "assay": "Test C postemergence, plant response rating", "details": "for Oat, Wild plant response rating: scale 0 to 100 (0 no effect, 100 complete control)", "procedure,_shortened": "as §2"}, "[16]": {"tested_on": "chickweed (common chickweed, Stellaria media)", "assay": "Test C postemergence, plant response rating", "details": "for Chickweed plant response rating: scale 0 to 100 (0 no effect, 100 complete control)", "procedure,_shortened": "as §2"}, "[17]": {"tested_on": "nutsedge, yellow (yellow nutsedge, Cyperus esculentus)", "assay": "Test C postemergence, plant response rating", "details": "for Nutsedge, Yellow plant response rating: scale 0 to 100 (0 no effect, 100 complete control)", "procedure,_shortened": "as §2"}, "[18]": {"tested_on": "galium (catchweed bedstraw, Galium aparine)", "assay": "Test C postemergence, plant response rating", "details": "for Galium plant response rating: scale 0 to 100 (0 no effect, 100 complete control)", "procedure,_shortened": "as §2"}, "[19]": {"details": "31 g ai/ha, 0 to 100 scale, 0 no effect, 100 complete control"}, "[20]": {"details": "125 g ai/ha, 0 to 100 scale (0 no effect, 100 complete control)"}}}
{"compound": "O=C(CCC(F)(F)C(F)(F)F)c1c(Br)cccc1Oc1ncc(Cl)cn1", "note": "[Compound 110]", "values": [{"measurement": "Plant response rating, Ryegrass, Italian", "setting": "[1]; [19]", "value": 0}, {"measurement": "Plant response rating, Ryegrass, Italian", "setting": "[1]; [20]", "value": 70}, {"measurement": "Plant response rating, Ragweed", "setting": "[2]; [19]", "value": 0}, {"measurement": "Plant response rating, Ragweed", "setting": "[2]; [20]", "value": 0}, {"measurement": "Plant response rating, Pigweed", "setting": "[3]; [19]", "value": 40}, {"measurement": "Plant response rating, Pigweed", "setting": "[3]; [20]", "value": 100}, {"measurement": "Plant response rating, Foxtail, Giant", "setting": "[4]; [19]", "value": 80}, {"measurement": "Plant response rating, Foxtail, Giant", "setting": "[4]; [20]", "value": 100}, {"measurement": "Plant response rating, Barnyardgrass", "setting": "[5]; [19]", "value": 40}, {"measurement": "Barnyardgrass plant response rating", "setting": "[5]; [20]", "value": 100}, {"measurement": "Plant response rating, Kochia", "setting": "[6]; [19]", "value": 10}, {"measurement": "Plant response rating, Kochia", "setting": "[6]; [20]", "value": 100}, {"measurement": "Plant response rating, Waterhemp", "setting": "[7]; 16 g ai/ha, scale of 0 to 100", "value": 85}, {"measurement": "Plant response rating, Waterhemp", "setting": "[7]; 31 g ai/ha, scale 0 to 100", "value": 90}, {"measurement": "Waterhemp plant response rating", "setting": "[7]; 125 g ai/ha, scale 0 to 100 (0 no effect, 100 complete control)", "value": 95}, {"measurement": "Plant response rating, Crabgrass, Large", "setting": "[8]; 16 g ai/ha, scale of 0 to 100", "value": 10}, {"measurement": "Plant response rating, Crabgrass, Large", "setting": "[8]; 31 g ai/ha, scale 0 to 100", "value": 20}, {"measurement": "Crabgrass, Large plant response rating", "setting": "[8]; 62 g ai/ha", "value": 25}, {"measurement": "Crabgrass, Large plant response rating", "setting": "[8]; 125 g ai/ha", "value": 60}, {"measurement": "Plant response rating, Corn", "setting": "[9]; 16 g ai/ha, scale of 0 to 100", "value": 10}, {"measurement": "Plant response rating, Corn", "setting": "[9]; 31 g ai/ha, scale 0 to 100", "value": 20}, {"measurement": "Corn plant response rating", "setting": "[9]; 62 g ai/ha", "value": 20}, {"measurement": "Corn plant response rating", "setting": "[9]; 125 g ai/ha", "value": 15}, {"measurement": "Plant response rating, Ragweed", "setting": "[10]; 16 g ai/ha, scale of 0 to 100", "value": 40}, {"measurement": "Plant response rating, Ragweed", "setting": "[10]; 31 g ai/ha, scale 0 to 100", "value": 50}, {"measurement": "Ragweed plant response rating", "setting": "[10]; 62 g ai/ha", "value": 60}, {"measurement": "Ragweed plant response rating", "setting": "[10]; 125 g ai/ha", "value": 60}, {"measurement": "Plant response rating, Lambsquarters", "setting": "[11]; 16 g ai/ha, scale of 0 to 100", "value": 75}, {"measurement": "Plant response rating, Lambsquarters", "setting": "[11]; 31 g ai/ha, scale 0 to 100", "value": 90}, {"measurement": "Lambsquarters plant response rating", "setting": "[11]; 62 g ai/ha", "value": 95}, {"measurement": "Lambsquarters plant response rating", "setting": "[11]; 125 g ai/ha", "value": 98}, {"measurement": "Plant response rating, Ryegrass, Italian", "setting": "[12]; 16 g ai/ha, scale of 0 to 100", "value": 5}, {"measurement": "Plant response rating, Ryegrass, Italian", "setting": "[12]; 31 g ai/ha, scale 0 to 100", "value": 10}, {"measurement": "Ryegrass, Italian plant response rating", "setting": "[12]; 62 g ai/ha", "value": 15}, {"measurement": "Ryegrass, Italian plant response rating", "setting": "[12]; 125 g ai/ha", "value": 20}, {"measurement": "Plant response rating, Soybean", "setting": "[13]; 16 g ai/ha, scale of 0 to 100", "value": 40}, {"measurement": "Plant response rating, Soybean", "setting": "[13]; 31 g ai/ha, scale 0 to 100", "value": 40}, {"measurement": "Soybean plant response rating", "setting": "[13]; 62 g ai/ha", "value": 50}, {"measurement": "Soybean plant response rating", "setting": "[13]; 125 g ai/ha", "value": 35}, {"measurement": "Plant response rating, Kochia", "setting": "[14]; 16 g ai/ha, scale of 0 to 100", "value": 95}, {"measurement": "Plant response rating, Kochia", "setting": "[14]; 31 g ai/ha, scale 0 to 100", "value": 100}, {"measurement": "Kochia plant response rating", "setting": "[14]; 62 g ai/ha", "value": 100}, {"measurement": "Kochia plant response rating", "setting": "[14]; 125 g ai/ha", "value": 100}, {"measurement": "Plant response rating, Oat, Wild", "setting": "[15]; 16 g ai/ha, scale of 0 to 100", "value": 20}, {"measurement": "Plant response rating, Oat, Wild", "setting": "[15]; 31 g ai/ha, scale 0 to 100", "value": 30}, {"measurement": "Oat, Wild plant response rating", "setting": "[15]; 62 g ai/ha", "value": 45}, {"measurement": "Oat, Wild plant response rating", "setting": "[15]; 125 g ai/ha", "value": 55}, {"measurement": "Plant response rating, Chickweed", "setting": "[16]; 16 g ai/ha, scale of 0 to 100", "value": 60}, {"measurement": "Plant response rating, Chickweed", "setting": "[16]; 31 g ai/ha, scale 0 to 100", "value": 95}, {"measurement": "Chickweed plant response rating", "setting": "[16]; 62 g ai/ha", "value": 95}, {"measurement": "Chickweed plant response rating", "setting": "[16]; 125 g ai/ha", "value": 90}, {"measurement": "Plant response rating, Nutsedge, Yellow", "setting": "[17]; 16 g ai/ha, scale of 0 to 100", "value": 0}, {"measurement": "Plant response rating, Nutsedge, Yellow", "setting": "[17]; 31 g ai/ha, scale 0 to 100", "value": 5}, {"measurement": "Nutsedge, Yellow plant response rating", "setting": "[17]; 62 g ai/ha", "value": 5}, {"measurement": "Nutsedge, Yellow plant response rating", "setting": "[17]; 125 g ai/ha", "value": 5}, {"measurement": "Plant response rating, Galium", "setting": "[18]; 16 g ai/ha, scale of 0 to 100", "value": 60}, {"measurement": "Plant response rating, Galium", "setting": "[18]; 31 g ai/ha, scale 0 to 100", "value": 75}, {"measurement": "Galium plant response rating", "setting": "[18]; 62 g ai/ha", "value": 75}, {"measurement": "Galium plant response rating", "setting": "[18]; 125 g ai/ha", "value": 90}]}
